Experimental data from patent publication US10017475B2, “Anti-vasculature and anti-tubulin combretastatin analogs for treatment of cancer” (XAVIER UNIVERSITY OF LOUISIANA, priority 2014, dated 2018).
Where two headings read alike, the source gives them in different places.

Key:
A549 = assay: Antiproliferative assay (resazurin, 72 h); format: cell-based, human; details: A549, 72 h incubation, read-out: Growth Inhibition IC50 A549
Experimental: (§1) Cells were seeded in 96-well plates (5×10^3 cells/well) containing 50 μL growth medium for 24 hours. After medium removal, 100 μL fresh medium containing individual analog compound at different concentrations was added to each well and incubated at 37° C. for 72 h. […] After 72 h of incubation, 20 μL of resazurin was added for 2 h before recording fluorescence at 560 nm (excitation) and 590 nm (emission) using a Victor microtiter plate fluorimeter (Perkin-Elmer, USA).

MDA-MB-231 = assay: Antiproliferative assay (resazurin, 72 h); format: cell-based, human; details: MDA-MB-231, 72 h incubation, read-out: Growth Inhibition IC50 MDA-MB-231
Experimental: as §1

HeLa = assay: Antiproliferative assay (resazurin, 72 h); format: cell-based, human; details: 72 h incubation, read-out: Growth Inhibition IC50 HeLa
Experimental: as §1

bovine brain tubulin = assay: Tubulin polymerization assay; details: compared to vehicle (DMSO)
Experimental: It is based on the principal that light is scattered by microtubules to an extent that is proportional to the concentration of the microtubule polymer. Compounds that interact with tubulin will alter the polymerization of tubulin, and this can be detected using a spectrophotometer. The absorbance at 340 nm at 37° C. is monitored. The experimental procedure of the assay was performed as described in version 8.2 of the tubulin polymerization assay kit manual. Varying concentrations of compounds were preincubated with 10 μM bovine brain tubulin in glutamate buffer at 30° C. and then cooled to 0° C. After the addition of 0.4 mM GTP, the mixtures were transferred to 0° C. cuvettes in a recording spectrophotometer and warmed to 30° C. Tubulin assembly was followed turbidimetrically at 350 nm.
The reaction was initiated by the addition of tubulin to a final concentration of 3.0 mg/mL

Row | SMILES | melting point | IC50 (A549; Homo sapiens, A549, 72 h) | IC50 (MDA-MB-231; Homo sapiens, MDA-MB-231, 72 h) | IC50 (HeLa; Homo sapiens, 72 h) | also measured
1 | COc1ccc(-c2cccc(-c3ccc(OC)c(O)c3)n2)c(OC)c1 [Compound 5, 2-(2,4-Dimethoxyphenyl)-6-(3-hydroxy-4-methoxyphenyl) pyridin-1-ium chloride] |  |  |  |  | IC50 (A549): 0.042 µM; IC50 (MDA-MB-231): 0.0054 µM; IC50 (HeLa): 0.0026 µM
2 | COc1ccc(-c2cccc(-c3ccc(O)cc3)n2)cc1OC [Compound 4b, 4-(6-(3,4-Dimethoxyphenyl)pyridin-2-yl)phenol] | 70 to 72 °C (dec.) | > 100 µM | > 50 µM | 0.86 µM | 
3 | COc1ccc(-c2ccc(Br)cn2)c(OC)c1 [Compound 2f, 5-Bromo-2-(2,4-dimethoxyphenyl)pyridine] |  | > 100 µM | > 100 µM | > 25 µM | 
4 | COc1ccc(-c2cccc(-c3ccc(OC)c(OC)c3)n2)cc1OC [Compound 3b, 2,6-Bis(3,4-dimethoxyphenyl)pyridine] | 140 to 141 °C | > 50 µM | > 50 µM | > 25 µM | 
5 | COc1cc(-c2cccc(-c3cc(OC)c(OC)c(OC)c3)n2)cc(OC)c1OC [Compound 3a, 2,6-Bis(3,4,5-trimethoxyphenyl)pyridine] |  | > 50 µM | 11 µM | 1 µM | 
6 | COc1ccc(-c2cccc(-c3ccc(OC)cc3)n2)cc1 [Compound 3d, 2,6-Bis(4-methoxyphenyl)pyridine] | 156 to 158 °C | > 100 µM | 9 µM | 2 µM | 
7 | COc1ccc(-c2cccc(-c3ccccc3OC)n2)c(OC)c1 [Compound 4r, 2-(2,4-Dimethoxyphenyl)-6-(2-methoxyphenyl)pyridine] |  | > 50 µM | > 25 µM | > 25 µM | 
8 | COc1ccc(-c2cccc(-c3cc(OC)ccc3OC)n2)c(OC)c1 [Compound 4m, 2-(2,4-Dimethoxyphenyl)-6-(2,5-dimethoxyphenyl)pyridine] |  | 0.33 µM | 0.034 µM | 0.034 µM | 
9 | COc1ccc(-c2cccc(-c3cc(OC)c(OC)c(OC)c3)n2)c(OC)c1 [Compound 4g, 2-(2,4-Dimethoxyphenyl)-6-(3,4,5-trimethoxyphenyl)pyridine] | 115 to 117 °C | 0.69 µM | > 100 µM | 4.43 µM | 
10 | COc1ccc(-c2cccc(-c3cccc(OC)c3OC)n2)c(OC)c1 [Compound 4n, 2-(2,3-Dimethoxyphenyl)-6-(2,4-dimethoxyphenyl)pyridine] | 79 to 80 °C | > 51 µM | > 50 µM | > 52 µM | 
11 | COc1ccc(-c2cccc(-c3c(OC)cccc3OC)n2)c(OC)c1 [Compound 4o, 2-(2,4-Dimethoxyphenyl)-6-(2,6-dimethoxyphenyl)pyridine] | 155 to 156 °C | > 100 µM | > 100 µM | > 50 µM | 
12 | COc1ccc(-c2cccc(-c3ccc(OC)cc3OC)n2)c(OC)c1 [Compound 3c, 2,6-Bis(2,4-dimethoxyphenyl)pyridine] | 113 to 114 °C | 0.079 µM | 0.075 µM | 0.011 µM | 
13 | COc1ccc(-c2cccc(-c3cc(OC)c(OC)c(OC)c3)n2)cc1O [Compound 4t, 2-Methoxy-5-(6-(3,4,5-trimethoxyphenyl)pyridine-2-yl)phenol] | 129 to 130 °C | 2.64 µM | 0.069 µM | 0.0047 µM | Inhibition of tubulin polymerization (bovine brain tubulin; compound at 1 μM): failed to inhibit tubulin polymerization; Inhibition of tubulin polymerization (bovine brain tubulin; compound at 10 μM): 32%
14 | COc1ccc(-c2cccc(-c3cc(OC)c(OC)c(OC)c3)n2)cc1OC [Compound 4c, 2-(3,4-Dimethoxyphenyl)-6-(3,4,5-trimethoxyphenyl)pyridine] | 107 to 108 °C | > 50 µM | 2.49 µM | 0.026 µM | 
15 | COc1ccc(-c2cccc(Br)n2)c(OC)c1 [Compound 2c, 2-Bromo-6-(2,4-dimethoxyphenyl)pyridine] |  | > 50 µM | > 100 µM | > 50 µM | 
16 | COc1cc(OC)cc(-c2cccc(-c3ccc(OC)cc3OC)n2)c1 [Compound 4l, 2-(2,4-Dimethoxyphenyl)-6-(3,5-dimethoxyphenyl)pyridine] |  | > 25 µM | > 25 µM | > 50 µM | 
17 | COc1cc(-c2cccc(Br)n2)cc(OC)c1OC [Compound 2a, 2-Bromo-6-(3,4,5-trimethoxyphenyl)pyridine] | 100 to 102 °C | 9 µM | 6 µM | 12 µM | 

Row | SMILES | melting point | IC50 (A549; Homo sapiens, A549, 72 h) | IC50 (MDA-MB-231; Homo sapiens, MDA-MB-231, 72 h) | IC50 (HeLa; Homo sapiens, 72 h) | also measured
18 | COc1ccc(-c2cccc(-c3c(OC)cc(OC)cc3OC)n2)c(OC)c1 [Compound 4q, 2-(2,4-Dimethoxyphenyl)-6-(2,4,6-trimethoxyphenyl)pyridine] | 144 to 145 °C | > 50 µM | > 50 µM | > 25 µM | 
19 | COc1ccc(-c2ccc(-c3cc(OC)c(OC)c(OC)c3)nc2)cc1OC [Compound 4i, 5-(3,4-Dimethoxyphenyl)-2-(3,4,5-trimethoxyphenyl)pyridine] | 131 to 132 °C | > 50 µM | > 50 µM | > 25 µM | 
20 | COc1cc(-c2ccc(Br)cn2)cc(OC)c1OC [Compound 2e, 5-Bromo-2-(3,4,5-trimethoxyphenyl)pyridine] | 49 to 50 °C | > 25 µM | 12 µM | 14 µM | 
21 | COc1ccc(-c2ccnc(-c3ccc(OC)cc3OC)c2)c(OC)c1 [Compound 3h, 2,4-Bis(2,4-dimethoxyphenyl)pyridine] | 95 to 97 °C | > 50 µM | > 50 µM | > 25 µM | 
22 | COc1ccc(-c2cccc(-c3ccc(OC)c(OC)c3)n2)c(OC)c1 [Compound 4e, 2-(2,4-Dimethoxyphenyl)-6-(3,4-dimethoxyphenyl)pyridine] | 100 to 101 °C | > 25 µM | 13 µM | > 50 µM | 
23 | COc1ccc(-c2cccc(Br)n2)cc1 [Compound 2d, 2-Bromo-6-(4-methoxyphenyl)pyridine] | 99 to 100 °C | 2 µM | 10 µM | 2 µM | 
24 | COc1ccc(-c2ccc(-c3ccc(OC)cc3OC)nc2)c(OC)c1 [Compound 3g, 2,5-Bis(2,4-dimethoxyphenyl)pyridine] | 124 to 125 °C | > 100 µM | > 100 µM | > 50 µM | 
25 | COc1ccc(-c2cccc(Br)n2)cc1OC [Compound 2b, 2-Bromo-6-(3,4-dimethoxyphenyl)pyridine] |  | > 25 µM | > 25 µM | > 50 µM | 
26 | COc1cc(-c2cccc(-c3ccc(O)cc3)n2)cc(OC)c1OC [Compound 4a, 4-(6-(3,4,5-Trimethoxyphenyl)pyridin-2-yl)phenol] | 92 to 94 °C (dec.) | > 25 µM | 10 µM | 8 µM | 
27 | COc1cc(-c2ccnc(-c3cc(OC)c(OC)c(OC)c3)c2)cc(OC)c1OC [Compound 3f, 2,4-Bis(3,4,5-trimethoxyphenyl)pyridine] |  |  |  |  | IC50 (A549; Homo sapiens): 7.86 µM; IC50 (MDA-MB-231; Homo sapiens): 2.63 µM; IC50 (HeLa; Homo sapiens): 0.79 µM
28 | COc1ccc(-c2cccc(-c3ccc(O)cc3)n2)c(OC)c1 [Compound 4k, 4-(6-(2,4-Dimethoxyphenyl)pyridine-2-yl)phenol] | 112 to 114 °C (dec.) | 4.22 µM | 17.2 µM | > 100 µM | 
29 | COc1cc(-c2ccc(-c3cc(OC)c(OC)c(OC)c3)nc2)cc(OC)c1OC [Compound 3e, 2,5-Bis(3,4,5-trimethoxyphenyl)pyridine] |  | > 100 µM | 11 µM | 2.68 µM | 
30 | COc1ccc(-c2cccc(-c3ccc(O)cc3)n2)cc1 [Compound 4j, 4-(6-(4-Methoxyphenyl)pyridine-2-yl)phenol] | 133 to 134 °C | > 25 µM | > 25 µM | > 50 µM | 
31 | COc1ccc(-c2cccc(-c3ccc(OC)c(OC)c3)n2)cc1 [Compound 4d, 2-(3,4-Dimethoxyphenyl)-6-(4-methoxyphenyl)pyridine] |  | > 25 µM | > 25 µM | > 25 µM | 
32 | COc1ccc(-c2cccc(-c3cc(OC)c(OC)c(OC)c3)n2)cc1 [Compound 4f, 2-(4-Methoxyphenyl)-6-(3,4,5-trimethoxyphenyl)pyridine] | 112 to 114 °C | > 50 µM | > 25 µM | > 50 µM | 
33 | COc1cccc(-c2cccc(-c3ccc(OC)cc3OC)n2)c1 [Compound 4p, 2-(2,4-Dimethoxyphenyl)-6-(3-methoxyphenyl)pyridine] |  | 0.56 µM | 9.02 µM | 0.067 µM | 
